Reference: paper PMC11374660, “The novel family of Warbicin® compounds inhibits glucose uptake both in yeast and human cells and restrains cancer cell proliferation” (Frontiers in Oncology, 2024)

What was measured:
[1] = tested on: yeast tps1Δ cells; experiment: Glu6P and Fru1,6bisP accumulation in tps1Δ yeast cells after glucose addition; format: cell-based, S. cerevisiae; settings: compound added at -10 min
Description: For measuring metabolite levels, yeast cells were typically grown in Complete Synthetic medium. […] However, when comparing the effect of Warbicin ® compounds on metabolite profiles of wild type and tps1Δ strains, cells were grown on 110 mM galactose. When grown to exponential phase, cells were harvested by centrifugation and washed twice with ice-cold 25 mM 2-(N-Morpholino)ethanesulfonic acid (MES) buffer, pH 6. Cells were suspended in Complete Synthetic medium without sugar at a concentration of 75 mg (wet weight)/mL followed by a temperature equilibration at 30°C in a shaking water bath for 30 min. Depending on the experiment, a final concentration of 2.5 mM, 7.5 mM or 10 mM glucose was added to the cell suspension. Compounds were added 10 min prior to glucose addition. […]
Through endpoint measurement of the absorbance of NADH or NADPH at 340 nm, metabolite concentrations in the yeast cells were calculated by applying Lambert’s Law. Different metabolites were measured through the use of coupled enzymatic reactions. […] Depending on the measured metabolite, different co-factors and auxiliary enzymes were added. For measuring glucose-6-phosphate, 1.07 mM NADP^+ was added to the assay buffer after which the baseline absorbance was measured. […] After stabilization of the OD340 spectra, ATP concentrations were measured by additionally adding 10 mM MgCl2 and 0.5 mM glucose to the assay buffer. […]

[2] = Solubility of compound stocks; format: physicochemical; settings: 100% DMSO
Description: WBC-A and the complete structural analog library ( Supplementary Table 2 ) were purchased from different vendors, i.e. Enamine (n = 185), Life Chemicals (n = 10), LabNetwork (n = 4) and Uorsy (n = 4). WBC compounds in general are very insoluble in aqueous solutions, challenging their solubilization. Throughout this work, WBC compounds were always stock aliquoted at 50 mM concentration in 100% DMSO. In many cases, gentle sonication and heating up to 37°C was necessary to completely solubilize the compound stocks. Whereas WBC-A, -15C, -4C and -11C could be dissolved at 50 mM, some structural analogs remained in smooth or rough suspension, regardless of the concentration. Even though it is recommended to aliquot compound stocks, no significant decrease in compound strength by repeated freeze and thaw cycles in DMSO was observed.

[3] = tested on: wild type yeast cells; experiment: Growth of wild type yeast (general toxicity); format: cell-based, S. cerevisiae; settings: 100 µM; 110 mM glucose medium and 325 mM glycerol + 430 mM ethanol medium
Description: Growth curves were made by measuring OD595 in a 96-well plate using the Multiskan™ FC Microplate Photometer (Thermo Fisher Scientific). Typically, for tps1Δ rescue experiments, cells were (pre)grown in Complete Synthetic medium containing 110 mM galactose. Compounds were always added 10 min prior to glucose addition to ensure maximal interaction between the cells and compounds. Cells originating from the preculture were harvested, washed in medium without sugar, after which they were resuspended to an OD of 0.1 in 200 µL of the appropriate medium. At least three technical replicates were included per condition. OD595 was measured at 30°C every 30 min with a 10-min shaking interval.

[4] = tested on: 2-deoxyglucose uptake in A549 lung adenocarcinoma cells; experiment: 2-deoxyglucose uptake in A549 lung adenocarcinoma cells; format: cell-based, human
Description: Zero-trans glucose uptake in A549 cells was approximated by measuring the uptake of [1,2-^3H]2-deoxyglucose. For this purpose, A549 cells were pregrown in RPMI medium containing 10 mM glucose in a 24-well plate to a cell density of around 100,000 cells/well. Prior to adding radioactive label, cells were gently washed twice in Krebs-Ringer-HEPES buffer (50 mM HEPES pH 7.4, 137 mM NaCl, 4.7 mM KCl, […], 1.3 mM MgSO4 and 0.1% w/v BSA) at 30°C to remove any residual sugar. RPMI medium without sugar containing the compound intended for treatment, was added to the cells for 15 min at 37°C to allow adequate interaction of the cells with the compound. The uptake measurement was initiated by adding an equal volume of medium containing radiolabeled 2DG. After 3 - 4 min incubation at 37°C, medium was aspirated and cells were gently washed three times with ice-cold Krebs-Ringer-HEPES buffer. Cells were lysed by adding 200 µL of ice-cold 0.1 M NaOH solution and incubating the plate for 10 min at 37°C. Cell lysates were transferred to scintillation vials for subsequent scintillation counting. For blank measurements, cells were incubated with 50 µM Cytochalasin B prior to the uptake measurement.

Structure (SMILES) | hyperaccumulation of Glu6P and Fru1,6bisP after addition of 2.5 mM glucose [1] | concentration at which compound could be dissolved [2] | growth inhibition of wild type yeast [3] | type of inhibition of 2-deoxyglucose uptake (Lineweaver-Burk) [4] | K'i for 2-deoxyglucose uptake ([4]; Dixon plot (Ki = K'i) or Cornish-Bowden plot (WBC-11C)) | Ki ([4]; read-out: Ki for 2-deoxyglucose uptake (Dixon plot))
Cc1nc(Sc2nnc3n2CCCCC3)c2c(-c3cccs3)csc2n1 [WBC-A] | concentration-dependent gradual drop in Glu6P and a more precipitous drop in Fru1,6bisP | ≥ 50000 µM | did not cause any growth inhibition at all | noncompetitive type of inhibition | 52.78 µM | 52.8 µM
Cc1nc(SCC(=O)c2ccc3c(c2)NC(=O)CO3)c2c(-c3cccs3)csc2n1 [WBC-11C] |  | ≥ 50000 µM |  | uncompetitive |  | 
